Measured values: the supplement of paper PMC6045584
± gives the standard deviation of the averaged measurements.

Legend:
TIOGUANINE [1] = compound: T1, Nc1nc2[nH]cnc2c(=S)[nH]1 [TIOGUANINE]; test: surviving fraction relative to DMSO-only wells; higher = less growth inhibition; conditions: exposure time: 5 days
How it was run: (§1)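 Tumour cell lines in log phase were plated in 384-well plates at 250–500 cells per well, then, after 24 hours, exposed continuously for five days to inhibitors at 0.5, 1, 5, 10, 50, 100, 500 and 1000 nM. Viability came from CellTiter-Glo luminescence, and surviving fraction is that signal normalised to the median of DMSO-only wells. Plates were read after 10 minutes at room temperature, and each line, screened three times, was kept only when replicate Pearson r was >0.7 and median Z' was >0.3.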

SAPACITABINE [2] = compound: T2, CCCCCCCCCCCCCCCC(=O)Nc1ccn([C@@H]2O[C@H](CO)[C@@H](O)[C@@H]2C#N)c(=O)n1 [SAPACITABINE]; test: as above; conditions: exposure time: 5 days
How it was run: as §1

BI-2536 [3] = compound: T3, CC[C@@H]1C(=O)N(C)c2cnc(Nc3ccc(C(=O)NC4CCN(C)CC4)cc3OC)nc2N1C1CCCC1 [BI-2536]; test: as above; conditions: exposure time: 5 days
How it was run: as §1

AFATINIB [4] = compound: T4, CN(C)C/C=C/C(=O)Nc1cc2c(Nc3ccc(F)c(Cl)c3)ncnc2cc1O[C@H]1CCOC1 [AFATINIB]; test: as above; conditions: exposure time: 5 days
How it was run: as §1

SNX-5422 [5] = compound: T5, CC1(C)CC(=O)c2c(C(F)(F)F)nn(-c3ccc(C(N)=O)c(N[C@H]4CC[C@H](OC(=O)CN)CC4)c3)c2C1 [SNX-5422]; test: as above; conditions: exposure time: 5 days
How it was run: as §1

CANERTINIB [6] = compound: T6, C=CC(=O)Nc1cc2c(Nc3ccc(F)c(Cl)c3)ncnc2cc1OCCCN1CCOCC1 [CANERTINIB]; test: as above; conditions: exposure time: 5 days
How it was run: as §1

[7] = compound: Cn1cc(C2=Nc3cc(NC(=O)C(N)C4CCCCC4)cc4c3C2=CNNC4=O)cn1; test: as above; conditions: exposure time: 5 days
How it was run: as §1

MDV3100 [8] = compound: T7, CNC(=O)c1ccc(N2C(=S)N(c3ccc(C#N)c(C(F)(F)F)c3)C(=O)C2(C)C)cc1F [MDV3100]; test: as above; conditions: exposure time: 5 days
How it was run: as §1

TIOGUANINE [9] = compound: T1, TIOGUANINE; test: area under dose-response curve of surviving fraction (unscaled, Aref=0) (surviving fraction x log10(nM)); higher = more resistant; conditions: exposure time: 5 days; dose range 0.5-1000 nM
How it was run: (§2)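 Each tumour cell line was screened three times in 384-well plates, receiving eight inhibitor concentrations from 0.5 to 1000 nM for five days. CellTiter-Glo luminescence gave viability, normalised to DMSO-only wells. Using the drc R package, surviving fractions were fitted with 3-parameter logistic dose-response curves, and the unscaled activity area over log10 dose (Aref = 0) was taken as the area under the curve.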

SAPACITABINE [10] = compound: T2, SAPACITABINE; test: as above; conditions: exposure time: 5 days; dose range 0.5-1000 nM
How it was run: as §2

BI-2536 [11] = compound: T3, BI-2536; test: as above; conditions: exposure time: 5 days; dose range 0.5-1000 nM
How it was run: as §2

AFATINIB [12] = compound: T4, AFATINIB; test: as above; conditions: exposure time: 5 days; dose range 0.5-1000 nM
How it was run: as §2

SNX-5422 [13] = compound: T5, SNX-5422; test: as above; conditions: exposure time: 5 days; dose range 0.5-1000 nM
How it was run: as §2

CANERTINIB [14] = compound: T6, CANERTINIB; test: as above; conditions: exposure time: 5 days; dose range 0.5-1000 nM
How it was run: as §2

[15] = compound: Cn1cc(C2=Nc3cc(NC(=O)C(N)C4CCCCC4)cc4c3C2=CNNC4=O)cn1; test: as above; conditions: exposure time: 5 days; dose range 0.5-1000 nM
How it was run: as §2

MDV3100 [16] = compound: T7, MDV3100; test: as above; conditions: exposure time: 5 days; dose range 0.5-1000 nM
How it was run: as §2

For HSSYII SYNOVIAL, the surviving fraction (TIOGUANINE [1]; 0.5 nM) was 0.927 ± 0.055, the surviving fraction (TIOGUANINE [1]; 1 nM) was 0.911 ± 0.028 and the surviving fraction (TIOGUANINE [1]; 5 nM) was 0.954 ± 0.05. It also gave a surviving fraction (TIOGUANINE [1]; 10 nM) of 0.92 ± 0.027, a surviving fraction (TIOGUANINE [1]; 50 nM) of 0.941 ± 0.055 and a surviving fraction (TIOGUANINE [1]; 100 nM) of 0.972 ± 0.049. For the same test system, the surviving fraction (TIOGUANINE [1]; 500 nM) was 0.885 ± 0.02, the surviving fraction (TIOGUANINE [1]; 1000 nM) was 0.842 ± 0.059 and the surviving fraction (SAPACITABINE [2]; 0.5 nM) was 0.797 ± 0.015. The surviving fraction (SAPACITABINE [2]; 1 nM) was 0.636 ± 0.061, the surviving fraction (SAPACITABINE [2]; 5 nM) was 0.726 ± 0.032 and the surviving fraction (SAPACITABINE [2]; 10 nM) was 0.132 ± 0.022. The surviving fraction (SAPACITABINE [2]; 50 nM) was 0.537 ± 0.033, the surviving fraction (SAPACITABINE [2]; 100 nM) was 0.315 ± 0.005 and the surviving fraction (SAPACITABINE [2]; 500 nM) was 0.123 ± 0.0085. For the same test system, the surviving fraction (SAPACITABINE [2]; 1000 nM) was 0.0603 ± 0.0046, the surviving fraction (BI-2536 [3]; 0.5 nM) was 0.998 ± 0.053 and the surviving fraction (BI-2536 [3]; 1 nM) was 0.944 ± 0.04. The surviving fraction (BI-2536 [3]; 5 nM) was 0.102 ± 0.023, the surviving fraction (BI-2536 [3]; 10 nM) was 0.0418 ± 0.0018 and the surviving fraction (BI-2536 [3]; 50 nM) was 0.045 ± 0.0054. The surviving fraction (BI-2536 [3]; 100 nM) was 0.0367 ± 0.001, the surviving fraction (BI-2536 [3]; 500 nM) was 0.0423 ± 0.0025 and the surviving fraction (BI-2536 [3]; 1000 nM) was 0.0472 ± 0.00058. The surviving fraction (AFATINIB [4]; 0.5 nM) was 0.981 ± 0.053, the surviving fraction (AFATINIB [4]; 1 nM) was 0.965 ± 0.1 and the surviving fraction (AFATINIB [4]; 5 nM) was 0.941 ± 0.035. For the same test system, the surviving fraction (AFATINIB [4]; 10 nM) was 0.984 ± 0.044, the surviving fraction (AFATINIB [4]; 50 nM) was 0.94 ± 0.024 and the surviving fraction (AFATINIB [4]; 100 nM) was 0.922 ± 0.064. It also gave a surviving fraction (AFATINIB [4]; 500 nM) of 0.635 ± 0.019, a surviving fraction (AFATINIB [4]; 1000 nM) of 0.379 ± 0.017 and a surviving fraction (SNX-5422 [5]; 0.5 nM) of 0.976 ± 0.035. It also gave a surviving fraction (SNX-5422 [5]; 1 nM) of 0.979 ± 0.042, a surviving fraction (SNX-5422 [5]; 5 nM) of 1.09 ± 0.04 and a surviving fraction (SNX-5422 [5]; 10 nM) of 0.977 ± 0.0066. It also gave a surviving fraction (SNX-5422 [5]; 50 nM) of 0.23 ± 0.015, a surviving fraction (SNX-5422 [5]; 100 nM) of 0.152 ± 0.0056 and a surviving fraction (SNX-5422 [5]; 500 nM) of 0.0738 ± 0.003. The surviving fraction (SNX-5422 [5]; 1000 nM) was 0.0662 ± 0.0051, the surviving fraction (CANERTINIB [6]; 0.5 nM) was 0.809 ± 0.039 and the surviving fraction (CANERTINIB [6]; 1 nM) was 0.794 ± 0.015. It also gave a surviving fraction (CANERTINIB [6]; 5 nM) of 0.814 ± 0.053, a surviving fraction (CANERTINIB [6]; 10 nM) of 0.855 ± 0.037 and a surviving fraction (CANERTINIB [6]; 50 nM) of 0.889 ± 0.033. For the same test system, the surviving fraction (CANERTINIB [6]; 100 nM) was 0.868 ± 0.011, the surviving fraction (CANERTINIB [6]; 500 nM) was 0.724 ± 0.031 and the surviving fraction (CANERTINIB [6]; 1000 nM) was 0.631 ± 0.021. It also gave a surviving fraction ([7]; 0.5 nM) of 0.92 ± 0.0095, a surviving fraction ([7]; 1 nM) of 0.96 ± 0.063 and a surviving fraction ([7]; 5 nM) of 0.885 ± 0.062. For the same test system, the surviving fraction ([7]; 10 nM) was 0.863 ± 0.014, the surviving fraction ([7]; 50 nM) was 0.135 ± 0.01 and the surviving fraction ([7]; 100 nM) was 0.046 ± 0.0044. For the same test system, the surviving fraction ([7]; 500 nM) was 0.0388 ± 0.0032, the surviving fraction ([7]; 1000 nM) was 0.0475 ± 0.0025 and the surviving fraction (MDV3100 [8]; 0.5 nM) was 0.881 ± 0.042. It also gave a surviving fraction (MDV3100 [8]; 1 nM) of 0.848 ± 0.052, a surviving fraction (MDV3100 [8]; 5 nM) of 0.903 ± 0.022 and a surviving fraction (MDV3100 [8]; 10 nM) of 0.545 ± 0.034. The surviving fraction (MDV3100 [8]; 50 nM) was 0.908 ± 0.028, the surviving fraction (MDV3100 [8]; 100 nM) was 0.9 ± 0.066 and the surviving fraction (MDV3100 [8]; 500 nM) was 0.949 ± 0.032. The surviving fraction (MDV3100 [8]; 1000 nM) was 0.721 ± 0.01, the “area under dose-response curve” value (TIOGUANINE [9]) was 3.09 and the “area under dose-response curve” value (SAPACITABINE [10]) was 1.36. The “area under dose-response curve” value (BI-2536 [11]) was 0.796, the “area under dose-response curve” value (AFATINIB [12]) was 2.96 and the “area under dose-response curve” value (SNX-5422 [13]) was 1.9. The “area under dose-response curve” value (CANERTINIB [14]) was 2.66, the “area under dose-response curve” value [15] was 1.67 and the “area under dose-response curve” value (MDV3100 [16]) was 2.74.
